Results from ChEMBL document CHEMBL5390241, “Natural Enfumafungin Analogues from Hormonema carpetanum and Their Antifungal Activities” (2023).
Converted amounts (≈) assume the structure as drawn.

Tests used:
Type in all cases: functional
[1] = tested on: Pichia kudriavzevii; test: Antifungal activity against candida krusei 4996 assessed as inhibition in growth incubated for 48 hrs by broth microdilution method
[2] = tested on: Candida albicans; test: Antifungal activity against Candida albicans 10231 assessed as inhibition in growth incubated for 48 hrs by broth microdilution method
[3] = tested on: [Candida] auris; test: Antifungal activity against Candida auris 919 assessed as inhibition in growth incubated for 48 hrs by broth microdilution method; conditions: Candidozyma auris
[4] = tested on: Candida albicans; test: Antifungal activity against Candida albicans SC5314 assessed as inhibition in growth incubated for 48 hrs by broth microdilution method
[5] = tested on: Nakaseomyces glabratus; test: Antifungal activity against Candida glabrata 537 assessed as inhibition in growth incubated for 48 hrs by broth microdilution method
[6] = tested on: [Candida] auris; test: Antifungal activity against Candida auris 918 assessed as inhibition in growth incubated for 48 hrs by broth microdilution method; conditions: Candidozyma auris
[7] = tested on: Cryptococcus neoformans; test: Antifungal activity against Cryptococcus neoformans H99 assessed as inhibition in growth incubated for 48 hrs by broth microdilution method
[8] = tested on: Cryptococcus neoformans; test: Antifungal activity against Cryptococcus neoformans 32609 assessed as inhibition in growth incubated for 48 hrs by broth microdilution method
[9] = tested on: Candida parapsilosis; test: Antifungal activity against Candida parapsilosis 22019 assessed as inhibition in growth incubated for 48 hrs by broth microdilution method; conditions: Lodderomyces parapsilosis
[10] = tested on: Candida tropicalis; test: Antifungal activity against Candida tropicalis 8915 assessed as inhibition in growth incubated for 48 hrs by broth microdilution method

Structure (SMILES) | MIC80 [1] | MIC80 [2] | MIC80 [3] | MIC80 [4] | MIC80 [5] | MIC80 [6] | MIC80 [7] | MIC80 [8] | MIC80 [9] | MIC80 [10]
OC(Cn1cncn1)(Cn1cncn1)c1ccc(F)cc1F [FLUCONAZOLE] | > 64 µg/mL | > 64 µg/mL | > 64 µg/mL | 1 µg/mL (≈ 3.27 µM) | 1 µg/mL (≈ 3.27 µM) | > 64 µg/mL | > 64 µg/mL | 1 µg/mL (≈ 3.27 µM) | 4 µg/mL (≈ 13.1 µM) | > 64 µg/mL
CC(=O)O[C@@H]1C[C@]23C4=CC[C@@]5(C)[C@H](C(=O)O)[C@@](C)([C@H](C)C(C)C)CC[C@]5(C)[C@H]4CC[C@H]2[C@@](C)(COC3O)[C@H]1O[C@@H]1O[C@H](CO)[C@@H](O)[C@H](O)[C@H]1O (stereo not given in full) [ENFUMAFUNGIN] | 8 µg/mL (≈ 11.3 µM) | 4 µg/mL (≈ 5.64 µM) | 64 µg/mL (≈ 90.3 µM) | 4 µg/mL (≈ 5.64 µM) | 8 µg/mL (≈ 11.3 µM) | 64 µg/mL (≈ 90.3 µM) | 4 µg/mL (≈ 5.64 µM) | 8 µg/mL (≈ 11.3 µM) | 8 µg/mL (≈ 11.3 µM) | 4 µg/mL (≈ 5.64 µM)
CC(=O)O[C@@H]1C[C@]23C4=CC[C@@]5(C)[C@@H]6C(=O)C[C@H](C(C)C)[C@@]6(C)CC[C@]5(C)[C@H]4CC[C@H]2[C@@](C)(COC3O)[C@H]1O[C@@H]1O[C@H](CO)[C@@H](O)[C@H](O)[C@H]1O (stereo not given in full) | 64 µg/mL (≈ 92.6 µM) | 32 µg/mL (≈ 46.3 µM) | > 64 µg/mL | 64 µg/mL (≈ 92.6 µM) | 16 µg/mL (≈ 23.2 µM) | > 64 µg/mL | 32 µg/mL (≈ 46.3 µM) | 64 µg/mL (≈ 92.6 µM) | > 64 µg/mL | 64 µg/mL (≈ 92.6 µM)
CC(C)[C@@H](C)[C@@]1(C)CC[C@]2(C)[C@H]3CC[C@H]4[C@@]5(C)COC(O)[C@@]4(C[C@@H](O)[C@@H]5O[C@@H]4O[C@H](CO)[C@@H](O)[C@H](O)[C@H]4O)C3=CC[C@@]2(C)[C@@H]1C(=O)O (stereo not given in full) | 64 µg/mL (≈ 96 µM) | > 64 µg/mL | > 64 µg/mL | > 64 µg/mL | 32 µg/mL (≈ 48 µM) | > 64 µg/mL | > 64 µg/mL | > 64 µg/mL | > 64 µg/mL | > 64 µg/mL
